The supplement of paper PMC10307832

Experiments:
Test in all cases: relative viability (nuclei count vs DMSO), 5 days (fraction); higher = more cells survive
[1] = compound: C1=CC(=CC=C1NC(=S)NNC2=C(C=C(C=C2[N+](=O)[O-])C(F)(F)F)[N+](=O)[O-])F [Kobe2602] + CC(C)C[C@H](NC(=O)[C@H](Cc1ccccc1)NC(=O)c1cnccn1)B(O)O [Bortezomib] (partner 0.002 µM)
How it was run: (§1)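 Lung cancer cell lines were seeded in 1536-well plates and dosed by pin tool the next day, with either a single drug or a fixed anchor-drug dose combined with five library-drug doses (not always all listed) spaced in √10 steps. Five days later, one step fixed the cells and stained their nuclei (final 0.05% Triton X-100, 1% formaldehyde, 1 ug/ml Hoechst), and nuclei were counted on 4× images. Relative viability is the nuclei count in treated wells divided by the count in vehicle wells, and each value is the median of duplicate plates.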

[2] = compound: C1=CC(=CC=C1NC(=S)NNC2=C(C=C(C=C2[N+](=O)[O-])C(F)(F)F)[N+](=O)[O-])F [Kobe2602] + C[C@]1(O)C[C@@H](c2nc(-c3ccc4ccc(-c5ccccc5)nc4c3)c3c(N)nccn32)C1 [Linsitinib] (partner 1 µM)
How it was run: as §1

[3] = compound: COc1cc2nccc(Oc3ccc(NC(=O)C4(C(=O)Nc5ccc(F)cc5)CC4)cc3)c2cc1OC [Cabozantinib] + Nc1nc2[nH]cc(CCc3ccc(C(=O)N[C@@H](CCC(=O)O)C(=O)O)cc3)c2c(=O)[nH]1 [Pemetrexed] (partner 0.2 µM)
How it was run: as §1

[4] = compound: O[C@@H](COc1cccc2ncccc12)CN1CCN([C@@H]2c3ccccc3[C@@H]3[C@H](c4ccccc42)C3(F)F)CC1 [Zosuquidar] + COc1cccc2cc(-c3nc([C@H]4CC[C@H](C(=O)O)CC4)n4ncnc(N)c34)[nH]c12 [OSI-027] (partner 0.5 µM)
How it was run: as §1

Cell Line	relative viability ([1]; first compound 0.2 µM)	relative viability ([1]; first compound 0.6325 µM)	relative viability ([1]; first compound 2 µM)	relative viability ([1]; first compound 6.325 µM)	relative viability ([1]; first compound 20 µM)	relative viability ([2]; first compound 0.2 µM)	relative viability ([2]; first compound 0.6325 µM)	relative viability ([2]; first compound 2 µM)	relative viability ([2]; first compound 6.325 µM)	relative viability ([2]; first compound 20 µM)	relative viability ([3]; first compound 0.02 µM)	relative viability ([3]; first compound 0.06325 µM)	relative viability ([3]; first compound 0.2 µM)	relative viability ([3]; first compound 0.6325 µM)	relative viability ([3]; first compound 2 µM)	relative viability ([4]; first compound 0.01 µM)	relative viability ([4]; first compound 0.03162 µM)	relative viability ([4]; first compound 0.1 µM)	relative viability ([4]; first compound 0.3162 µM)	relative viability ([4]; first compound 1 µM)
201T	0.956	1.05	1.12	1.18	1.13	0.968	1.04	1.05	0.955	0.941	0.311	0.351	0.305	0.336	0.313	0.777	0.722	0.646	0.803	0.741
A549						0.562	0.687	0.583	0.524	0.578										
A-427	0.998	0.991	0.982	0.779	1.07	1.1	1.15	1.09	0.954	1.17	0.949	1.04	0.995	1.02	1	0.409	0.511	0.4	0.507	0.501
ABC-1	0.42	0.256	0.283	0.35	0.336	0.609	0.984	0.722	0.876	0.735						0.479	0.426	0.607	0.54	0.509
BEN	0.908	0.897	0.938	0.821	0.99	0.988	1.06	0.967	0.858	0.915	0.65	0.914	0.781	0.851	0.698	0.31	0.297	0.288	0.301	0.313
CAL-12T	0.997	1.17	0.921	0.931	0.93	0.707	0.821	0.705	0.916	0.709	1.37	1.14	1.25	1.19	1.09	0.715	0.867	0.478	0.951	0.562
COR-L23	0.88	1.04	0.914	1.07	0.92	0.798	1.09	0.941	0.894	0.939	0.215	0.197	0.191	0.185	0.193	0.738	0.702	0.688	0.858	0.757
COR-L 105	0.688	1.14	0.739	0.692	0.746	0.711	0.985	0.574	0.944	0.988	1.1	1.19	0.9	0.999	1.02	0.595	0.679	0.519	0.79	0.613
Calu-6	1.11	1.04	0.945	0.971	0.951	0.911	0.975	0.897	0.954	0.895										
ChaGo-K-1	1.04	1.09	0.788	1.06	0.946						0.261	0.261	0.255	0.26	0.263	0.595	0.479	0.644	0.553	0.522
EBC-1	0.528	0.479	0.539	0.511	0.612	0.796	0.975	0.893	0.938	0.871										
EKVX	1.13	1.08	0.994	1.02	1.1	1.02	1.02	0.919	0.971	1.03	0.376	0.477	0.352	0.467	0.461	0.743	0.622	0.536	0.707	0.762
EMC-BAC-2	1.08	1.17	1.06	1.12	1.12	0.794	0.869	0.817	0.796	0.793	0.47	0.456	0.529	0.456	0.449	0.365	0.365	0.373	0.435	0.376
EPLC-272H	1.03	1.01	0.778	0.866	0.873	1.2	1.2	1.23	1.36	0.447	0.368	0.37	0.301	0.318	0.282	0.275	0.335	0.273	0.31	0.275
H3255	0.691	0.782	0.743	0.818	0.766	0.875	1.09	0.941	0.838	0.87	0.52	0.646		0.57	0.575	0.639	0.532	0.451	0.624	0.565
HARA	1.17	1.1	0.994	1.14	1.12	0.959	1.02	0.948	0.839	0.847	0.244	0.234		0.279	0.226	0.49		0.415	0.564	0.398
